≈ marks a conversion by molar mass, not a printed value. Read-outs that look alike come from different tables or passages of the source. Residues, ends and D or L forms follow the SMILES beside them.
Key:
[1] = Acute toxicity in mice (maximum tolerated dose, IV bolus); type: in vivo, mouse; settings: mouse, in vivo, iv, single IV bolus dose, replicates 1-4; read-out: MTD, single replicate
Outline: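 Female Swiss mice (7 weeks, 22–28 g) given single IV tail-vein bolus of lipopeptide in 0.9% saline, dosed as mg/kg free base. Clinical toxicity signs monitored over 0–24 h, most frequently in first 2 h.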

A. baumannii FADDI-AB051 = type: cell-based, Acinetobacter baumannii
Outline: (§1)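 Susceptibility: microdilution MIC in CaMHB.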

A. baumannii FADDI-AB144 = type: cell-based, Acinetobacter baumannii
Outline: as §1

A. baumannii FADDI-AB161 = type: cell-based, Acinetobacter baumannii
Outline: as §1

[2] = system: P. aeruginosa FADDI-PA102; test: MIC, polymyxin-resistant isolate; type: cell-based, Pseudomonas aeruginosa; settings: carbapenem-resistant
Procedure: MICs were determined in cation-adjusted Mueller–Hinton broth (CaMHB) by the broth micro-dilution method against ATCC strains and clinical isolates. MICs in the presence of Survanta® were determined as described above against P. aeruginosa ATCC 27853. In the 100 μL of fresh CaMHB containing polymyxins, 10% Survanta® (v/v, 2.5 mg/mL phospholipids) was added. MICs in the presence and absence of Survanta® were compared to determine the effect of binding to lung surfactant on the antibacterial activity of polymyxins.

[3] = in vivo
Procedure: The plasma pharmacokinetic profiles of F365 and polymyxin B were assessed in Swiss mice (female, 7-week-old, 22–28 g) after a single intraperitoneal dose (5 mg/kg, n = 3). Blood samples were collected at various time points over 24 h post dosing for analysis. The plasma pharmacokinetic profiles of F365 (n = 5) and polymyxin B (1 mg/kg, n = 11) in Sprague-Dawley rats (male, 10-week-old, 280 to 330 g) were assessed after intravenous administration (1 min) of F365 and polymyxin B via an indwelling jugular vein cannula. Blood samples (~0.3 mL) were collected via an indwelling carotid artery cannula at various time points over 24 h post dosing. Urine samples were collected at 4 °C using a metabolic cage during the period between 0 and 24 h post dosing. Concentrations of F365 and polymyxin B in plasma and urine samples were determined using LC-MS/MS and pharmacokinetic analysis was conducted using WinNonlin (Pharsight Corp., Mountain View, CA). The ELF pharmacokinetic profiles of F365 and polymyxin B was determined in neutropenic Swiss mice (female, 7-week-old, 22–28 g) after subcutaneous injection (40 mg/kg, n = 3). Bronchoalveolar lavage (BAL) samples were collected at various time points over 24 h post dosing from the cannulated trachea using Milli-Q water as BAL washing media. The average volume of ELF in mice was calculated by the ratio of urea concentrations in plasma and BAL samples. Concentrations of F365 and polymyxin B in plasma and BAL were analyzed by LC-MS/MS. Pharmacokinetic parameters were calculated using a non-compartment model with WinNonlin. For mouse, rat, and human plasma protein binding of F365 and polymyxin B, pooled plasma samples (n = 3) from each species were spiked with F365 or polymyxin B. The spiked plasma samples were subjected to ultrafiltration and the corresponding filtrates were analyzed by LC-MS/MS to determine the concentration of F365 and polymyxin B and the protein binding in each species.

P. aeruginosa PAM2035 = type: cell-based, Pseudomonas aeruginosa; settings: nitrocefin hydrolysis, without Mg2+
Procedure: Bacterial strains were seeded in 50 mL of Luria-Bertani (LB) broth at OD600 0.05 and grown at 37 °C for 3-4 h until an OD600 of 0.6–0.8 was achieved. Bacterial cells were washed twice with 25 mL of buffer (50 mM sodium phosphate, 0.5% glucose, pH 7, with or without 1 mM Mg^2+), resuspended in 10 mL of the buffer, and then adjusted to an OD600 of 0.4. […] Bacterial suspension (50 μL, OD600 0.4) in buffer was added to the lipopeptide solutions and the rate of substrate hydrolysis was measured at 490 nm.
Activity of F365 and polymyxin B in the outer membrane permeabilization assay.
The outer and inner membranes of gram-negative bacteria are the sites of interaction and action of polymyxin antibiotics, respectively. These polycationic compounds bind to phosphate residues of lipid A and displace the magnesium and calcium ions that cross-bridge adjacent lipid A molecules thereby stabilizing the outer membrane. […]
as the main mechanism of action by polymyxin B and colistin. The outer membrane-permeabilizing effect of F365 at a wide range of concentrations was assessed by examining the rates of hydrolysis of a chromogenic β-lactam, nitrocefin, by intact cells of Pseudomonas aeruginosa. […]

## CCCCCCCC(=O)N[C@@H](CCN)C(=O)N[C@H](C(=O)N[C@@H](CN)C(=O)N[C@H]1CCNC(=O)[C@H]([C@@H](C)O)NC(=O)[C@H](CCN)NC(=O)[C@H](CCN)NC(=O)[C@H](CC)NC(=O)[C@@H](CC(C)C)NC(=O)[C@H](CCN)NC1=O)[C@@H](C)O [Lipopeptide F287] (HELM PEPTIDE1{[CCCCCCCC(=O)[*:2]].[Dab].T.[NC[C@H](N[*:1])C(=O)[*:2]].[Dab].[Dab].[dL].[Abu].[Dab].[Dab].T}$PEPTIDE1,PEPTIDE1,5:R3-11:R2$$$V2.0)
[1]
  MTD: 6 mg/kg

## CC[C@@H]1NC(=O)[C@@H](CC(C)C)NC(=O)[C@H](CCN)NC(=O)[C@@H](NC(=O)[C@H](CN)NC(=O)[C@@H](NC(=O)[C@H](CCN)NC(=O)c2ccc(Cl)cc2Cl)[C@@H](C)O)CCNC(=O)[C@H]([C@@H](C)O)NC(=O)[C@H](CCN)NC(=O)[C@H](CCN)NC1=O [Lipopeptide F365] (HELM PEPTIDE1{[O=C(c1ccc(Cl)cc1Cl)[*:2]].[Dab].T.[NC[C@H](N[*:1])C(=O)[*:2]].[Dab].[Dab].[dL].[Abu].[Dab].[Dab].T}$PEPTIDE1,PEPTIDE1,5:R3-11:R2$$$V2.0)
[1]
  MTD: 13 mg/kg
A. baumannii FADDI-AB051; FADDI-AB051
  MIC A. baumannii FADDI-AB051: 0.5 µg/mL (≈ 0.431 µM)
A. baumannii FADDI-AB144; FADDI-AB144
  MIC A. baumannii FADDI-AB144: 32 µg/mL (≈ 27.6 µM)
A. baumannii FADDI-AB161; FADDI-AB161
  MIC A. baumannii FADDI-AB161: 1 µg/mL (≈ 0.862 µM)
[2]
  MIC P. aeruginosa FADDI-PA102: 4 µg/mL (≈ 3.45 µM)
[3]; mouse, sc, 40 mg/kg
  AUC(0-inf): 86200 ng·h/mL
  Cmax in ELF relative to polymyxin B: 3 fold
  Free AUC(0-∞) in ELF (estimated fAUCELF): 86200 ng·h/mL
  Total CL: 7.67 mL/min/kg
  half-life: 3.39 h
[3]; rat
  urinary recovery relative to polymyxin B: > 4 fold
[3]; rat, iv, 1 mg/kg
  AUC(0-inf): 2400 ng·h/mL
  clearance: 7.67 mL/min/kg
  half-life: 0.91 h
P. aeruginosa PAM2035
  IC50 for membrane permeabilization: 0.73 ± 0.07 µg/mL

## Polymyxin B [reference compound]
A. baumannii FADDI-AB051; carbapenem-resistant
  MIC A. baumannii FADDI-AB051: 0.5 µg/mL
A. baumannii FADDI-AB144; polymyxin-resistant
  MIC A. baumannii FADDI-AB144: 16 µg/mL
A. baumannii FADDI-AB161; polymyxin-resistant
  MIC A. baumannii FADDI-AB161: 8 µg/mL
[2]
  MIC P. aeruginosa FADDI-PA102: 4 µg/mL
[3]; mouse, sc, 40 mg/kg
  AUC(0-∞) in ELF: 80000 ng·h/mL
  Free AUC(0-∞) in ELF (estimated fAUCELF): 10000 ng·h/mL
  Total CL: 8.33 mL/min/kg
  half-life: 6.70 h
[3]; rat, iv, 1 mg/kg
  half-life: 1.45 h
P. aeruginosa PAM2035
  IC50 for membrane permeabilization: 1.15 ± 0.22 µg/mL
